Assay results as given in patent US20150037269A1, “TOPICAL COMPOSITIONS FOR TREATMENT OF EXCESSIVE SWEATING AND METHODS OF USE THEREOF” (GlaxoSmithKline Intellectual Property Development Limited, priority 2013, published 2015).
Values belong to the compound of their own block, whether it stands above or below them.

Tests used:
[1] = Irritation potential of topical solution; details: solution comprising 2.2% w/w
[2] = Clinical study: single radiolabelled topical dose to axilla or palm of healthy male subjects; type: in vivo, human; details: for Cmax: male, human, plasma, topical, 3.05 mg
Protocol: Up to four cohorts were to be enrolled (Cohort A: unoccluded axilla; Cohort B: occluded axilla; Cohort C: unoccluded palm; Cohort D: occluded palm). Six subjects were to be dosed in each cohort and complete the study procedures.
On the day of dosing, subjects will receive the study drug applied to the axilla or palm. Each subject will only receive a single dose of study drug which will be applied to the test site and remain on the application site for 8 hours. Serial blood samples will be collected throughout treatment. An interim analysis using simulations will be conducted after each cohort to determine the likelihood of exceeding the safety cover for Cmax or AUC and the likelihood of obtaining quantifiable concentrations sufficient to determine the half-life in the subsequent cohorts.

[3] = cited from earlier work
[4] = MALDI imaging of distribution in skin layers; type: in vitro ADME, human; details: twenty-four hours after single finite topical dose
Source text: Matrix-assisted laser desorption/ionization (MALDI) has emerged as a powerful and diverse technology for analyzing the spatial distribution of endogenous and exogenous compounds directly from a tissue section. [See Seeley E H, Caprioli R M. MALDI imaging mass spectrometry of human tissue: method challenges and clinical perspectives. Trends Biotechnol. 29(3), 136-143 (2011); and Svatos A. Mass spectrometric imaging of small molecules. Trends Biotechnol. 28(8), 425-434 (2010)]. […] Anal Bioanal Chem. (2013); 405(4):1159-70]. MALDI imaging in human skin tissue sections: focus on various matrices and enzymes.

[5] = Population pharmacokinetic model (IV plus dermal occluded axilla data); type: in vivo, human
Source text: Of the drug that was available systemically, 9.70% (66.7%) was absorbed through a zero order process.

[6] = PopPK, IV and dermal occluded axilla

SMILES: OC(c1ccccc1)(c1ccccc1)C12CC[N+](CCOCc3ccccc3)(CC1)CC2 [umeclidinium bromide]
- irritation potential [1]: low irritation potential

- Cmax ([2]; occluded axilla (Cohort B), CV 122%): 7.92 pg/mL
- Cmax ([2]; unoccluded axilla (Cohort A), CV 144%): 2.33 pg/mL
- samples quantifiable up to ([2]; occluded axilla (Cohort B), post dose): 16 to 72 h
- mean percent dose recovered from the skin surface ([2]; occluded axilla (Cohort B), range 69.2%-81.7%): 75.4%
- median time to maximum concentration ([2]; occluded axilla (Cohort B), range 2 h-24 h): 13 h
- plasma concentrations ([2]; occluded palm (Cohort D)): no quantifiable plasma concentrations
- mean percent dose recovered from the skin surface ([2]; occluded palm (Cohort D), range 45.6%-59.9%): 52.5%
- mean percent dose recovered from the skin surface ([2]; unoccluded axilla (Cohort A), end of 8 hour application, range 77.7-84.1%): 80.6%
- quantifiable plasma concentrations up to ([2]; unoccluded axilla (Cohort A), one subject, post-dose): up to 72 hours
- median time to maximum plasma concentration ([2]; unoccluded axilla (Cohort A), range 12 h-30 h): 13 h
- CL2 Intercompartmental Clearance, Mean (RSE %) [5, 6]: 39376 (26.0%) mL/h
- CL Elimination clearance, Mean (RSE %) [5, 6]: 45241 (23.6%) mL/h
- F1 Fraction of the bioavailable drug absorbed through a zero order process, Mean (RSE %) [5, 6]: 0.097 (66.7%)
- Ka First order absorption rate constant, Mean (RSE %) [5, 6]: 0.094 (54.1%)
- Tlag Lag time for the first order absorption process, Mean (RSE %) [5, 6]: 8.61 (15.3%) hr
- V1 Volume of central compartment, Mean (RSE %) [5, 6]: 7726 (17.6%) mL
- V2 Volume of peripheral compartment, Mean (RSE %) [5, 6]: 261058 (57.3%) mL
- F Absolute plasma bioavailability following administration to occluded axilla, Mean (RSE %) ([5]; PopPK, fraction): 0.0019 (55.3%)
- bioavailability ([5]; human, plasma, topical, 3.05 mg, occluded axilla, RSE 55.3%, read-out: estimated absolute plasma bioavailability): 0.19%
- share of systemically available drug absorbed through a zero order process ([5]; occluded axilla, RSE 66.7%): 9.70%
SMILES: OC(c1ccccc1)(c1ccccc1)C12CC[N+](CCOCc3ccccc3)(CC1)CC2 [umeclidinium, 4-[hydroxy(diphenyl)methyl]-1-{2-[(phenylmethyl)oxy]ethyl}-1-azoniabicyclo[2.2.2]octane]
- tolerability in thorough QT study ([3]; 0.5 mg inhaled once daily for 10 days): well tolerated
- tolerability in clinical development program ([3]; oral, intravenous and oral inhalation routes): well tolerated
- qualitative distribution in skin layers [4]: penetrated to the deeper sections of the dermis and accumulated in the area where the sweat glands are present
